Laboratory results: ChEMBL document CHEMBL3507680, “University of Dundee, Gates Library screen for HepG2 cell viability”

Test: Human HepG2 cell viability assay in 384 well format
Format: toxicity, cell-based
Parameters: dose 125 nL, time 70.5 hour; concentration not given beside the values
Settings: HepG2 cells, read-out: Inhibition

| Structure (SMILES) | cytotoxicity at 70.5 h [%] |
| --- | --- |
| CCN(CC1COc2ccccc2O1)C(=O)CCn1cncn1 (stereo not drawn) | -5.89 |
| COc1ccc(CN[C@@H]2CO[C@H](CNC(=O)NC(C)C)[C@H]2O)cc1 | -5.02 |
| CC(C)N(C)CC(=O)Nc1ccc(-n2ccc(C(N)=O)n2)cc1 | -2.55 |
| CCn1nc(C)c2nc(C(C)C)nc(NCCCO)c21 | -16.2 |
| C=C(C)COc1cccc(CN(C)C(C)c2ccncn2)c1 (stereo not drawn) | -4.71 |
| CN(C)S(=O)(=O)c1ccc(CNC(=O)C2CC2)cc1 | 1.13 |
| Cc1ccc(Cc2cnc(NC(=O)C3CNC(=O)N3)s2)cc1F (stereo not drawn) | -0.116 |
| CN1CC(=O)N(c2cccc(F)c2)CC12CCN(CCO)C2 (stereo not drawn) | -5.44 |
| CCCS(=O)(=O)N1CCC2(CN(c3cnn(C)c3)C(=O)CN2C)C1 (stereo not drawn) | 0.667 |
| Cn1c(CCNC(=O)CC[C@@H]2CCCN3CCCC[C@H]23)n[nH]c1=O | -14.7 |
| COCC(=O)N1CCC([C@@H]2C[C@H](C(F)(F)F)n3nc(C)cc3N2)CC1 | -3.42 |
| N[C@H]1CN(CCOc2ccc(F)cc2)C[C@@H]1C1CC1 | 14.7 |
| CCCS(=O)(=O)N1Cc2nccn2CC(Cn2cccn2)C1 (stereo not drawn) | -2.32 |
| Cc1csc2ncc(-c3ccnc(N4CCCC[C@@H]4CO)n3)c(=O)n12 | 20.9 |
| Cc1nnc2n1CCN(CC(=O)NC(C)c1ccc3ccccc3c1)C2 (stereo not drawn) | 17.7 |
| N#Cc1c(CN2CCCC2Cn2cccn2)cn2ccccc12 (stereo not drawn) | 18.8 |
| Cc1cc(Cl)c2c(c1)C1(NC(=O)c3cccnc3N1)C(=O)N2 (stereo not drawn) | -1.82 |
| COc1ccc(CCc2nnc(NC(=O)C3CC34CCC4)s2)cc1OC (stereo not drawn) | -8.17 |
| Cc1cnn(CC2CCCN2C(=O)c2ccc(OC(C)C)nc2)c1 (stereo not drawn) | -15 |
| c1cnc(N2CCCC3(CCN(Cc4ccsc4)C3)C2)nc1 (stereo not drawn) | 11.1 |
| CN(CCNS(C)(=O)=O)C(=O)c1ccc(Cl)c(Cl)c1 | -6.01 |
| CCC[C@@H]1CN(Cc2c[nH]c(CC3CCCC3)n2)C[C@H]1C(=O)O | -7.4 |
| Cc1ccccc1-n1ccnc1S(=O)(=O)Cc1nsc(N(C)C)n1 | -11 |

| Structure (SMILES) | cytotoxicity at 70.5 h [%] |
| --- | --- |
| CCCn1ncc(C(=O)NCCc2[nH]nc3c2CCCC3)c1C | -5.62 |
| COCC(=O)N(C)Cc1ccc(OCc2cccs2)cc1 | -6.51 |
| CN(C)Cc1cc(CC2(NCc3ccc(C#N)cc3)COC2)no1 | -6.01 |
| COc1cccc(-n2cc(-c3ccnc(N[C@@H](CO)C(C)C)n3)cn2)c1 | 13.3 |
| O=C(CN1CCCC1c1noc(C2CC2)n1)NCCc1ccsc1 (stereo not drawn) | 4.35 |
| CC1CCN(C(=O)c2cc(NC(=O)c3ccccc3)n(C)n2)CC1 | -14.1 |
| COCCn1cnnc1C1CCCN(C(C)C)C1 (stereo not drawn) | 17.1 |
| CCCn1ncc(C(=O)N2CCN(C3CCCC3)CC2)c1C | -3.82 |
| CCc1c(C)sc(NC(=O)CN2CCN(CC)CC2)c1C(=O)OC | -2.99 |
| Cc1cc(C)n(CC2CN(Cc3nc(C)c(C)o3)CCO2)n1 (stereo not drawn) | -5.6 |
| O=C(NCc1nc[nH]n1)c1cc(COc2cccc(C(F)(F)F)c2)[nH]n1 | 21.3 |
| COc1ccc(CNCc2c(C)nc3sc(C)cn23)c(OC)c1OC | 11.7 |
| Cc1ccc(C(=O)NC(CN2CCCC2)c2ccccc2)c(=O)[nH]1 (stereo not drawn) | -3.04 |
| c1ccc2c(Cc3nnc([C@H]4CCNC4)o3)c[nH]c2c1 | -2.38 |
| CC(C)(C)c1cnc(CN2CCN(c3ncccn3)CC2)o1 | 6.21 |
| CNC(=O)[C@H]1C[C@H]2OCC[C@H]2N(Cc2cccc3ccccc23)C1 | -6.96 |
| c1ccc(CN2C[C@@H]3COC[C@]3(COCc3ccncc3)C2)nc1 | -2.45 |
| COc1ccc(C(O)CNC(=O)NCc2csc(C)n2)cc1 (stereo not drawn) | 27.2 |
| O=S(=O)(N[C@H]1CC[C@H]1NC1Cc2ccccc2C1)c1cccnc1 | -6.2 |
| CCOc1ccc(Br)cc1C1CCCCN1 (stereo not drawn) | -12.6 |
| CNc1nc(C2CCCN2C(C)=O)nc2c1CCN(CC1CC1)C2 (stereo not drawn) | -13.7 |
| COC(=O)c1ccc(Cn2nc(C)cc2C)c(F)c1 | -4.1 |
| Cc1cnc(N2CC3(CCN(Cc4cccnc4)C3)C2)nc1 | -13.4 |

| Structure (SMILES) | cytotoxicity at 70.5 h [%] |
| --- | --- |
| CNC(=O)CCc1cccc(C2CCCN(c3cc(C)ncn3)C2)n1 (stereo not drawn) | -2.33 |
| CCCS(=O)(=O)N1CCC(Oc2ccc(C#N)cc2)CC1 | 4.2 |
| CC/N=c1\nc(NCC)nc2n1C(O)(Nc1ccc(C)cc1C)CS2 (stereo not drawn) | 4.88 |
| Cc1cccc(C(=O)N2C[C@@H]3OCCN(CCN4CCCC4)[C@@H]3C2)n1 | -7.28 |
| Cn1c(SCC(O)COCc2ccc(Cl)cc2)nnc1C1CC1 (stereo not drawn) | -3.52 |
| COc1ccc(-c2csc(N)c2C#N)cc1OC | -13 |
| CCc1ccc2nc(-c3cnn(C)c3)cc(C(=O)N3CCCC3)c2c1 | -5.34 |
| Cn1ccnc1C1CCCN(C(=O)c2ccc3nccnc3c2)C1 (stereo not drawn) | 2.22 |
| O=C(Cc1ccccn1)N1CCN2C[C@H](Oc3cncnc3)C[C@H]2C1 | -7.37 |
| COC(=O)C(NC(=O)CCc1ccco1)c1cc(F)ccc1F (stereo not drawn) | -7.98 |
| CCn1cc(CN2CCCC(COc3ccc(F)cc3)C2)cn1 (stereo not drawn) | 12.1 |
| COCCCn1c(CN2CCCCO2)cnc1S(=O)(=O)C1CCCC1 | -4.4 |
| COc1cccc(CCC(=O)N2CCCC(c3nncn3C)C2)c1 (stereo not drawn) | -7.27 |
| CN1CCN(C(=O)c2n[nH]c3c2CN(C2CCOCC2)CC3)CC1 | -10.2 |
| COCC1CCN(c2ccnc3ccsc23)C1 (stereo not drawn) | -5.48 |
| O=S(=O)(NCCn1ccc(-c2ccccn2)n1)C1CC1 | -0.0974 |
| COc1cc(N2C[C@H]3CCC[C@@H](CN(C)C)[C@H]3C2)ncn1 | -10.1 |
| NC(=O)CN1CCCN(C(=O)c2ccn(-c3cccc(F)c3)n2)CC1 | -7.11 |
| CCc1nc2n(n1)CC(NCc1ncc(-c3ccccc3)o1)CC2 (stereo not drawn) | -5.1 |
| COCCN1C[C@H]2CC[C@@H]1CN(C(=O)CCc1n[nH]c(C)c1C)C2 | 6.62 |
| Cc1cc(N2CCCC2c2nnc3n2CCCCC3)nc(C)n1 (stereo not drawn) | -3.38 |
| Cc1cnn(CCC(=O)NC2CCc3nc(C)cn3C2)c1 (stereo not drawn) | -3.94 |
| Cc1cccc(CN2CCn3cc(CNC(=O)CC4CC4)nc3C2)n1 | -5.24 |

| Structure (SMILES) | cytotoxicity at 70.5 h [%] |
| --- | --- |
| CC(C)Oc1ccccc1C(=O)NCCc1nncn1C | -6.83 |
| CC1(C)CNC(=O)CN(C(=O)CCc2ccccc2)C1 | -3.7 |
| c1cnc(NCCCOC2CCOCC2)nc1 | 4.17 |
| CC(C)c1noc(CS(=O)(=O)CC(=O)NCc2cccs2)n1 | -9.72 |
| COc1cccc(CNc2nc(C)cc(C)n2)c1OC | -2.87 |
| O=C(CC1CCCC1)N1CCN(c2ccc(-n3cncn3)nn2)CC1 | -7.71 |
| CN(C)C(=O)COC[C@]12COC[C@H]1CN(Cc1ccco1)C2 | 0.692 |
| COc1cccc(CNC[C@H]2COCc3nc4cccnc4n32)n1 | -8.19 |
| COc1ccc(NC(=O)N2CCCCC2c2ncc[nH]2)cc1 (stereo not drawn) | -7.7 |
| Cc1nc(CSc2nc(=O)ccn2C(C)C)cs1 | -6.6 |
| O=C(CCc1ccccc1)NCC(O)c1c(F)cccc1F (stereo not drawn) | -3.12 |
| Cc1cc(CCC(=O)N(C)C)nc(C2CCCCN2)n1 (stereo not drawn) | -5.77 |
| O=C(NC1CCCNC1)c1cc(COc2cccc(C(F)(F)F)c2)[nH]n1 (stereo not drawn) | -0.657 |
| CCOCCCNC(=O)c1cc(Br)c2c(c1)OCCO2 | -8.79 |
| CNC(=O)N1CCC2(CC1)CN(C)Cc1cc(F)ccc12 | 2.33 |
| Cn1ccc(C(=O)Nc2cccc(-c3ccc4c(c3)CCO4)n2)cc1=O | -20.6 |
| COc1ccc(CN2C[C@@H](CN(C)C)[C@@H](CO)C2)cc1OC | -3.1 |
| COc1cccc(CN2CCC(c3nnc(-c4cnc(C)cn4)o3)C2)c1 (stereo not drawn) | -13.5 |
| O=C1NCCN1C1CCN(CC(O)c2ccccc2F)CC1 (stereo not drawn) | -7.23 |
| Cc1cc(C[C@@H]2COC[C@H]2NCc2ccccc2C(F)(F)F)on1 | -11 |
| CO[C@H]1CN(C(=O)c2cn3cc(C)ccc3n2)CC[C@@]12CCCO2 | -17.2 |
| Cc1nnc(-c2cccc(C#N)c2)n1C1CCN(C(C)C)C1=O (stereo not drawn) | -11.3 |
| Cc1cnn(CCNCC(=O)NCC2(c3ccccc3)CCC2)c1 | 22.8 |

| Structure (SMILES) | cytotoxicity at 70.5 h [%] |
| --- | --- |
| Cc1[nH]c2c(C)ccc(C)c2c1CC(=O)NCC(O)c1cccnc1 (stereo not drawn) | -10.2 |
| Cc1nn(C)c(N2CCOCC2)c1CNC1CCc2cc(F)ccc21 (stereo not drawn) | -19.2 |
| Cc1cc(C(=O)NC2CCCc3c2cnn3-c2cccc(C)c2C)[nH]n1 (stereo not drawn) | -3.11 |
| Cn1c(N2CCOCC2)nc2cc(C(=O)N3CCCOCC3)ccc21 | -12.1 |
| CC(=O)N1CCCc2sc(C(=O)Nc3ccc(C)nc3)nc21 | -1.24 |
| COCCN1CCCC1(C)c1nc(C)cc(N)n1 (stereo not drawn) | 0.23 |
| c1cn2c(n1)CN(C1CCOCC1)CC(CN1CCCC1)C2 (stereo not drawn) | -2.92 |
| O=C(NCc1ccccc1)C1CN(c2ccccn2)CCO1 (stereo not drawn) | -15.5 |
| CC(Cn1cccn1)NC(=O)C1=Cc2ccccc2OC1 (stereo not drawn) | -4.64 |
| Cn1cc(CN2CCCn3cnc(COCC4CC4)c3C2)cn1 | -12.6 |
| Cc1nn(C)c(C)c1C1CCCN1C(=O)c1cnccn1 (stereo not drawn) | -2.94 |
| Cc1ncc2c(n1)CN(CCCc1nc3ccccc3o1)CC2 | -0.537 |
| CC(C)(C)NC(=O)c1cnc2n1CCCC2 | -6.71 |
| Cn1ncc2ccc(C3CCCN(Cc4ccsc4)C3)nc21 (stereo not drawn) | 7.16 |
| Cn1nccc1C(=O)NCCN1CCC(O)(c2ccc(F)cc2)CC1 | 7.28 |
| CCc1cc2c(N3CCCC(c4ccn[nH]4)C3)ncnc2s1 (stereo not drawn) | 2.73 |
| c1ccc(NCc2cn3c(n2)CN(Cc2ccoc2)CC3)nc1 | -0.75 |
| Cc1cnc(CN(C)C2CCN(Cc3nc4ccccc4n3C)C2)o1 (stereo not drawn) | 25.2 |
| CN(C)C[C@H]1OC[C@@H]2CN(C(=O)NCc3cccnc3)CC[C@@H]21 | 0.184 |
| COC(=O)CCCC(=O)N1CCCCC1c1ccc(F)cc1 (stereo not drawn) | 2.01 |
| CC(=O)N1CCO[C@@H]2CN(C(=O)c3ccc4ccccc4c3)CC[C@@H]2C1 | -2.64 |
